Experiment: In vivo PET imaging, uptake in brain and liver
Design: species or system wild-type FVB/NJ mice
Procedure: To evaluate the imaging potential and brain uptake of PET probe [^18F]2, we selected FVB/NJ wild-type mice and performed radiotracer uptake studies via tail vein injection of [^18F]2 followed by dynamic imaging upto 60 min and static imaging at 120 min post-injection. Ex-vivo biodistribution was performed immediately after 120 min static imaging. Uptake of [^18F]2 was assessed in the brain and liver of wild-type FVB/NJ mice by PET imaging at different time points post-injection with and without co-administration of 2 (reference compound as a self-blocking agent). Representative transverse sectional PET images of the brain at different time points are shown in Fig. 6 and representative coronal and sagittal sectional PET images of the liver and whole-body PET images are shown in SI-Figs. S17 and S18, respectively. It was encouraging to observe brain uptake of PET probe [^18F]2 with a standard uptake value (SUV) of 0.92 ± 0.28 (n = 6) at 5 min post-injection. Approximately 80% of PET probe [^18F]2 was cleared from the wild-type mice brain in the first 30 min. The uptake of [^18F]2 in the brain was lower than in the liver at all time points post-injection. […] The contrasting response in uptake of [^18F]2 in the brain in the presence of 2 could be attributed to the peripheral effect. […] This is also evident from the higher concentration of 2 in the blood of the animals in which [^18F]2 was co-administered with 2 as compared to administration of only [^18F]2 (Figs. 6, 7 and 8 and SI-Table S2, SI-Figs. S17, S18). A similar observation was also reported by Lindberg et al. 2021 with [^11C]verubulin in rats, where co-injection of verubulin increased the uptake of [^11C]verubulin in the brain and was attributed to the saturation of the enzymes (e.g. cytochrome P450 enzymes) that metabolize the tracer in the liver, leading to increased bioavailability. It is also plausible that the isonicotinamide class of compounds are substrate for cytochrome P450 enzymes.
Uptake of PET probe [^18F]2 (1.40 ± 0.61 MBq) was assessed with and without co-administration of 2 in 10–13-week-old wild-type FVB/NJ mice (The Jackson Laboratory, Bar Harbor, ME) after tail vein injection followed by PET imaging at 5 min, 10 min, 15 min, 20 min, 25 min, 30 min, 40 min, 50 min, 60 min and 120 min post injection. Additionally, ex vivo biodistribution was performed at 5 min, 10 min and 120 min post tail vein injection. To prepare [^18F]2 formulation for injection, 0.76 ± 0.48 µg (2.01 ± 1.27 nmol) of [^18F]2 was formulated in 10% ethanol/ 90% isotonic saline. For the blocking experiment, 20.21 ± 1.63 µg (53.75 ± 4.33 nmol) of 2 in DMSO was added to [^18F]2 (Am of 87.27 ± 77.26 (n = 13) GBq/µmole, having 0.46 ± 0.31 µg or 1.23 ± 0.83 nmol of nonradioactive 2 in it) in the final formulation volume of ~ 100 µL. This study had 12 wild type FVB/NJ male mice with body weight 31.8 ± 2.7 g and 10 wild type FVB/NJ female mice with body weight 27.0 ± 3.6 g at the time of imaging. All the animals were anesthetized for tail vein injection and PET imaging using an induction dose of 3% isoflurane and a maintenance dose of 2–3% isoflurane, which was administered via isoflurane vaporizer. All anesthetized animals were kept warm during imaging using a heat supported imaging chamber. For ex vivo biodistribution studies, animals were sacrificed at 5 min, 10 min and 120 min post-injection by cervical dislocation and tissues were harvested for gamma counting. For PET imaging studies, each animal underwent a 60 min dynamic PET scan (Framing Sequence: 1 × 10 s, 4 × 15 s, 8 × 30 s, 5 × 60 s, 4 × 300 s, 3 × 600 s) immediately post injection followed by 10 min static PET scan at 120 min post-injection on small animal micro-PET/X-ray system, Genesys 4 (Sofie BioSystems, Dulles, VA, USA). The PET images were reconstructed using Genesys 4 imaging software installed on the imaging system. […]

## O=C(Nc1cnccc1-c1ccc([18F])cc1)c1ccnc(NC(=O)C2CC2)c1 [[^18F]2]
brain, 5 min post-injection, [^18F]2 + 20 µg of 2
  Uptake (SUV) by PET image analysis: 0.93 ± 0.06
brain, 5 min post-injection, [^18F]2 alone
  Uptake (SUV) by PET image analysis: 0.92 ± 0.28
brain, 5 min time point
  Change of brain uptake on co-administration of compound 2: no difference in uptake
brain, 10 min post-injection, [^18F]2 + 20 µg of 2
  Uptake (SUV) by PET image analysis: 0.57 ± 1.06
brain, 10 min post-injection, [^18F]2 alone
  Uptake (SUV) by PET image analysis: 0.38 ± 0.06
brain, 10 min time point
  Change of brain uptake on co-administration of compound 2: 1.5 fold
brain, 15 min, 20 min, 25 min and 30 min time points
  Change of brain uptake on co-administration of compound 2: twofold
brain, 15 min post-injection, [^18F]2 + 20 µg of 2
  Uptake (SUV) by PET image analysis: 0.50 ± 0.06
brain, 15 min post-injection, [^18F]2 alone
  Uptake (SUV) by PET image analysis: 0.24 ± 0.03
brain, 20 min post-injection, [^18F]2 + 20 µg of 2
  Uptake (SUV) by PET image analysis: 0.43 ± 0.06
brain, 20 min post-injection, [^18F]2 alone
  Uptake (SUV) by PET image analysis: 0.21 ± 0.02
brain, 25 min post-injection, [^18F]2 + 20 µg of 2
  Uptake (SUV) by PET image analysis: 0.40 ± 0.06
brain, 25 min post-injection, [^18F]2 alone
  Uptake (SUV) by PET image analysis: 0.19 ± 0.03
brain, 30 min post-injection, [^18F]2 + 20 µg of 2
  Uptake (SUV) by PET image analysis: 0.36 ± 0.06
brain, 30 min post-injection, [^18F]2 alone
  Uptake (SUV) by PET image analysis: 0.19 ± 0.04
brain, 40 min post-injection, [^18F]2 + 20 µg of 2
  Uptake (SUV) by PET image analysis: 0.31 ± 0.06
brain, 40 min post-injection, [^18F]2 alone
  Uptake (SUV) by PET image analysis: 0.18 ± 0.04
brain, 50 min post-injection, [^18F]2 + 20 µg of 2
  Uptake (SUV) by PET image analysis: 0.28 ± 0.06
brain, 50 min post-injection, [^18F]2 alone
  Uptake (SUV) by PET image analysis: 0.17 ± 0.03
brain, 60 min post-injection, [^18F]2 + 20 µg of 2
  Uptake (SUV) by PET image analysis: 0.26 ± 0.06
brain, 60 min post-injection, [^18F]2 alone
  Uptake (SUV) by PET image analysis: 0.16 ± 0.03
brain, 120 min post-injection, [^18F]2 + 20 µg of 2
  Uptake (SUV) by PET image analysis: 0.18 ± 0.01
brain, 120 min post-injection, [^18F]2 alone
  Uptake (SUV) by PET image analysis: 0.09 ± 0.01
liver, 5 min post-injection, [^18F]2 + 20 µg of 2
  Uptake (SUV) by PET image analysis: 5.24 ± 1.46
liver, 5 min post-injection, [^18F]2 alone
  Uptake (SUV) by PET image analysis: 5.66 ± 1.18
liver, 10 min post-injection, [^18F]2 + 20 µg of 2
  Uptake (SUV) by PET image analysis: 5.86 ± 0.51
liver, 10 min post-injection, [^18F]2 alone
  Uptake (SUV) by PET image analysis: 7.43 ± 0.66
liver, 15 min post-injection, [^18F]2 + 20 µg of 2
  Uptake (SUV) by PET image analysis: 5.49 ± 0.28
liver, 15 min post-injection, [^18F]2 alone
  Uptake (SUV) by PET image analysis: 7.89 ± 0.59
liver, 20 min post-injection, [^18F]2 + 20 µg of 2
  Uptake (SUV) by PET image analysis: 5.19 ± 0.27
liver, 20 min post-injection, [^18F]2 alone
  Uptake (SUV) by PET image analysis: 7.88 ± 0.60
liver, 25 min post-injection, [^18F]2 + 20 µg of 2
  Uptake (SUV) by PET image analysis: 4.93 ± 0.30
liver, 25 min post-injection, [^18F]2 alone
  Uptake (SUV) by PET image analysis: 7.61 ± 0.65
liver, 30 min post-injection, [^18F]2 + 20 µg of 2
  Uptake (SUV) by PET image analysis: 4.76 ± 0.33
liver, 30 min post-injection, [^18F]2 alone
  Uptake (SUV) by PET image analysis: 7.34 ± 0.77
liver, 40 min post-injection, [^18F]2 + 20 µg of 2
  Uptake (SUV) by PET image analysis: 4.55 ± 0.23
liver, 40 min post-injection, [^18F]2 alone
  Uptake (SUV) by PET image analysis: 6.91 ± 0.91
liver, 50 min post-injection, [^18F]2 + 20 µg of 2
  Uptake (SUV) by PET image analysis: 4.31 ± 1.15
liver, 50 min post-injection, [^18F]2 alone
  Uptake (SUV) by PET image analysis: 6.40 ± 1.04
liver, 60 min post-injection, [^18F]2 + 20 µg of 2
  Uptake (SUV) by PET image analysis: 4.09 ± 1.16
liver, 60 min post-injection, [^18F]2 alone
  Uptake (SUV) by PET image analysis: 5.95 ± 1.12
liver, 120 min post-injection, [^18F]2 + 20 µg of 2
  Uptake (SUV) by PET image analysis: 3.19 ± 0.37
liver, 120 min post-injection, [^18F]2 alone
  Uptake (SUV) by PET image analysis: 2.78 ± 1.40
wild-type mice brain, in the first 30 min
  Fraction of probe cleared from the brain: Approximately 80%
